In ChEMBL document CHEMBL3425507, “Separation and peroxisome proliferator-activated receptor-γ agonist activity evaluation of synthetic racemic bavachinin enantiomers” (Bioorg Med Chem Lett, 2015) one finds Retention_time, IC50 and Ki data, which are given here for three compounds.

Broadly, the IC50 is the concentration that gives 50% inhibition. A lower IC50 goes with greater potency. Broadly, the Ki is the equilibrium dissociation constant of an inhibitor or competing ligand from its target. Low values mean higher affinity, high ones lower affinity.

The structures appear in SMILES notation.

The nature of data set [1]: Retention time of the compound by supercritical fluid chromatography. It counts as ADME.
The target in data set [2] is T1, Peroxisome proliferator-activated receptor gamma (Homo sapiens, UniProt P37231).
T1 sequence (P37231 whole entry): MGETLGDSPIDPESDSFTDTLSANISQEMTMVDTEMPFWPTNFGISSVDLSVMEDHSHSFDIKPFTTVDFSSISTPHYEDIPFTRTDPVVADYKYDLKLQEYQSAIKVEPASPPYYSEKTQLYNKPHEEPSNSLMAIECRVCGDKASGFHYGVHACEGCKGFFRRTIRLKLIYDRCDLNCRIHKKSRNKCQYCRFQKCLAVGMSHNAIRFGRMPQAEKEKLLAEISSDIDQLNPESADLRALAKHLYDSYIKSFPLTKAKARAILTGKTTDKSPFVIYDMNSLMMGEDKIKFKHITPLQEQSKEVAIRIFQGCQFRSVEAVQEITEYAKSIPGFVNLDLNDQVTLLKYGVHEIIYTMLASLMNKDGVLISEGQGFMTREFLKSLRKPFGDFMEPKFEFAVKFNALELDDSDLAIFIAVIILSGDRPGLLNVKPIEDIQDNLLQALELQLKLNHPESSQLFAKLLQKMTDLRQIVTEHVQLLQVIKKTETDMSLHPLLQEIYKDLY
Put plainly: Agonist activity at PPARgamma ligand binding domain (unknown origin) using fluormone Pan-PPAR green tracer by TR-FRET assay based competitive ligand binding method.

Compound `COc1cc2c(cc1CC=C(C)C)C(=O)C[C@H](c1ccc(O)cc1)O2` returned a Retention_time in data set [1] of 4.99 min. In data set [2], this compound showed a 50% inhibitory concentration (IC50) of 471 nM and an inhibition constant (Ki) of 169 nM.
For `COc1cc2c(cc1CC=C(C)C)C(=O)C[C@@H](c1ccc(O)cc1)O2` [BAVACHININ A], the Retention_time in data set [1] is given as 4.4 min. In data set [2], this compound had a concentration for half-maximal inhibition (IC50) of 617 nM and an inhibitory constant (Ki) of 221 nM.
In data set [2], `COc1cc2oc(-c3ccc(O)cc3)cc(=O)c2cc1CC=C(C)C` [BAVACHININ] displayed a half-inhibitory concentration (IC50) of 489 nM and a Ki of 176 nM.
